{"source": "PubChem BioAssay (NCI)", "assay_in_all_cases": "growth of human tumour cells (NCI), 48 h", "key": {"[1]": {"system": "786-0 renal"}, "[2]": {"system": "A498 renal"}, "[3]": {"system": "A549 NSCLC"}, "[4]": {"system": "ACHN renal"}, "[5]": {"system": "CAKI-1 renal"}, "[6]": {"system": "CCRF-CEM leukemia"}, "[7]": {"system": "COLO 205 colon"}, "[8]": {"system": "DLD-1 colon"}, "[9]": {"system": "DMS 114 small cell lung"}, "[10]": {"system": "DMS 273 small cell lung"}, "[11]": {"system": "EKVX NSCLC"}, "[12]": {"system": "HCC-2998 colon"}, "[13]": {"system": "HCT-116 colon"}, "[14]": {"system": "HCT-15 colon"}, "[15]": {"system": "HL-60(TB) leukemia"}, "[16]": {"system": "HOP-18 NSCLC"}, "[17]": {"system": "HOP-62 NSCLC"}, "[18]": {"system": "HOP-92 NSCLC"}, "[19]": {"system": "HT29 colon"}, "[20]": {"system": "IGROV1 ovarian"}, "[21]": {"system": "K-562 leukemia"}, "[22]": {"system": "KM12 colon"}, "[23]": {"system": "KM20L2 colon"}, "[24]": {"system": "LOX IMVI melanoma"}, "[25]": {"system": "LXFL 529 NSCLC"}, "[26]": {"system": "M14 melanoma"}, "[27]": {"system": "MALME-3M melanoma"}, "[28]": {"system": "MOLT-4 leukemia"}, "[29]": {"system": "NCI-H226 lung"}, "[30]": {"system": "NCI-H23 lung"}, "[31]": {"system": "NCI-H460 lung"}, "[32]": {"system": "NCI-H522 lung"}, "[33]": {"system": "OVCAR-3 ovarian"}, "[34]": {"system": "OVCAR-4 ovarian"}, "[35]": {"system": "OVCAR-5 ovarian"}, "[36]": {"system": "OVCAR-8 ovarian"}, "[37]": {"system": "RPMI-8226 leukemia"}, "[38]": {"system": "RXF 393 renal"}, "[39]": {"system": "RXF-631 renal"}, "[40]": {"system": "SF-268 CNS"}, "[41]": {"system": "SF-295 CNS"}, "[42]": {"system": "SF-539 CNS"}, "[43]": {"system": "SK-MEL-2 melanoma"}, "[44]": {"system": "SK-MEL-28 melanoma"}, "[45]": {"system": "SK-MEL-5 melanoma"}, "[46]": {"system": "SK-OV-3 ovarian"}, "[47]": {"system": "SN12C renal"}, "[48]": {"system": "SNB-19 CNS"}, "[49]": {"system": "SNB-75 CNS"}, "[50]": {"system": "SNB-78 CNS"}, "[51]": {"system": "SR leukemia"}, "[52]": {"system": "SW-620 colon"}, "[53]": {"system": "TK-10 renal"}, "[54]": {"system": "U251 CNS"}, "[55]": {"system": "UACC-257 melanoma"}, "[56]": {"system": "UACC-62 melanoma"}, "[57]": {"system": "UO-31 renal"}, "[58]": {"system": "XF 498 CNS"}}, "note": "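Test compounds were applied to cells in 96-well plates for 48 hours at 5 doses. The concentration for full growth arrest is given as TGI.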", "data": [{"smiles": "O=S(=O)(O)C1=C2Sc3ccccc3N=C2c2ccccc2C1", "values": [{"measurement": "TGI", "setting": "[1]", "value": 31.4, "unit": "µM"}, {"measurement": "TGI", "setting": "[2]", "value": 32.8, "unit": "µM"}, {"measurement": "TGI", "setting": "[3]", "value": 34.3, "unit": "µM"}, {"measurement": "TGI", "setting": "[4]", "value": 25.1, "unit": "µM"}, {"measurement": "TGI", "setting": "[5]", "value": 34.7, "unit": "µM"}, {"measurement": "TGI", "setting": "[6]", "value": 24.3, "unit": "µM"}, {"measurement": "TGI", "setting": "[7]", "value": 30.3, "unit": "µM"}, {"measurement": "TGI", "setting": "[8]", "value": 32.5, "unit": "µM"}, {"measurement": "TGI", "setting": "[9]", "value": 22.2, "unit": "µM"}, {"measurement": "TGI", "setting": "[10]", "value": 29.5, "unit": "µM"}, {"measurement": "TGI", "setting": "[11]", "value": 32, "unit": "µM"}, {"measurement": "TGI", "setting": "[12]", "value": 31.4, "unit": "µM"}, {"measurement": "TGI", "setting": "[13]", "value": 28.5, "unit": "µM"}, {"measurement": "TGI", "setting": "[14]", "value": 27.3, "unit": "µM"}, {"measurement": "TGI", "setting": "[15]", "value": 21.2, "unit": "µM"}, {"measurement": "TGI", "setting": "[16]", "value": 25.2, "unit": "µM"}, {"measurement": "TGI", "setting": "[17]", "value": 35, "unit": "µM"}, {"measurement": "TGI", "setting": "[18]", "value": 22, "unit": "µM"}, {"measurement": "TGI", "setting": "[19]", "value": 40, "unit": "µM"}, {"measurement": "TGI", "setting": "[20]", "value": 28.1, "unit": "µM"}, {"measurement": "TGI", "setting": "[21]", "value": 36.1, "unit": "µM"}, {"measurement": "TGI", "setting": "[22]", "value": 29.5, "unit": "µM"}, {"measurement": "TGI", "setting": "[23]", "value": 34.3, "unit": "µM"}, {"measurement": "TGI", "setting": "[24]", "value": 25.5, "unit": "µM"}, {"measurement": "TGI", "setting": "[25]", "value": 24.6, "unit": "µM"}, {"measurement": "TGI", "setting": "[26]", "value": 25.5, "unit": "µM"}, {"measurement": "TGI", "setting": "[27]", "value": 30, "unit": "µM"}, {"measurement": "TGI", "setting": "[28]", "value": 29.1, "unit": "µM"}, {"measurement": "TGI", "setting": "[29]", "value": 35.5, "unit": "µM"}, {"measurement": "TGI", "setting": "[30]", "value": 31.1, "unit": "µM"}, {"measurement": "TGI", "setting": "[31]", "value": 40, "unit": "µM"}, {"measurement": "TGI", "setting": "[32]", "value": 31.3, "unit": "µM"}, {"measurement": "TGI", "setting": "[33]", "value": 31.3, "unit": "µM"}, {"measurement": "TGI", "setting": "[34]", "value": 33.8, "unit": "µM"}, {"measurement": "TGI", "setting": "[35]", "value": 34.5, "unit": "µM"}, {"measurement": "TGI", "setting": "[36]", "value": 31.5, "unit": "µM"}, {"measurement": "TGI", "setting": "[37]", "value": 38.6, "unit": "µM"}, {"measurement": "TGI", "setting": "[38]", "value": 35.1, "unit": "µM"}, {"measurement": "TGI", "setting": "[39]", "value": 29.5, "unit": "µM"}, {"measurement": "TGI", "setting": "[40]", "value": 27.5, "unit": "µM"}, {"measurement": "TGI", "setting": "[41]", "value": 26.7, "unit": "µM"}, {"measurement": "TGI", "setting": "[42]", "value": 24.4, "unit": "µM"}, {"measurement": "TGI", "setting": "[43]", "value": 35.7, "unit": "µM"}, {"measurement": "TGI", "setting": "[44]", "value": 31.4, "unit": "µM"}, {"measurement": "TGI", "setting": "[45]", "value": 26.4, "unit": "µM"}, {"measurement": "TGI", "setting": "[46]", "value": 44.1, "unit": "µM"}, {"measurement": "TGI", "setting": "[47]", "value": 26.8, "unit": "µM"}, {"measurement": "TGI", "setting": "[48]", "value": 51.6, "unit": "µM"}, {"measurement": "TGI", "setting": "[49]", "value": 32.5, "unit": "µM"}, {"measurement": "TGI", "setting": "[50]", "value": 34, "unit": "µM"}, {"measurement": "TGI", "setting": "[51]", "value": 20.6, "unit": "µM"}, {"measurement": "TGI", "setting": "[52]", "value": 29.8, "unit": "µM"}, {"measurement": "TGI", "setting": "[53]", "value": 32.9, "unit": "µM"}, {"measurement": "TGI", "setting": "[54]", "value": 25.4, "unit": "µM"}, {"measurement": "TGI", "setting": "[55]", "value": 31.4, "unit": "µM"}, {"measurement": "TGI", "setting": "[56]", "value": 26.4, "unit": "µM"}, {"measurement": "TGI", "setting": "[57]", "value": 33.6, "unit": "µM"}, {"measurement": "TGI", "setting": "[58]", "value": 31.8, "unit": "µM"}]}]}
